Source: US9861623B1, “Combination treatment of RAS-positive diseases with PDE-δ inhibitor and direct autophagy inhibitor” (Macau University of Science and Technology, priority 2016, dated 2018)
Each block holds one molecule with its values, some of them ahead of it.

Key:
Assay type in all cases: cell-based
LC3-II = assay: Western blot of LC3-I to LC3-II conversion (autophagy); settings: 24 h; for accumulation of LC3-II under deltarasin: A549 cells
Experimental: (§1) Cells were washed twice with cold PBS and then lysed in RIPA lysis buffer containing protease and phosphatase inhibitors. Protein concentration of the cell lysate was measured by using the Bio-Rad protein assay kit (Bio-Rad, Philadelphia, Pa., USA). After equalizing the protein concentrations of the samples, 5×laemmli buffer was added and boiled at 100° C. for 5 min. Equal amounts of protein (20-40 μg per lane) were separated with a 10% SDS-PAGE gel, then the separated proteins were transferred to a nitrocellulose (NC) membrane, which was then exposed to 5% non-fat dry milk in TBS contains 0.1% Tween 20 (0.1% TBST) for 1 h at room temperature with constant agitation, followed by overnight incubation at 4° C. with primary anti-bodies. After washing 3 times with TBST, the membranes were incubated with secondary rabbit or mouse fluorescent antibodies, then the signal intensity of the membranes was detected by anLI-COR Odessy scanner (Belfast, Me., USA). All primary antibodies were diluted in 1:1000, while their recommended secondary antibodies were diluted in 1:10000.

A549 cells [1] = assay: GFP-LC3 puncta formation in transfected A549 cells; settings: 24 h
Experimental: GFP-LC3 expression vector was utilized to monitor and quantify the induction of autophagy following the 3rd autophagy guidelines. A549 cells were seeded at a density of 2×10^5 cells/well in 6-well plates, according to the manufacturers instructions. Lipofectamine™ 2000 was incubated with GFP-LC3 in Opti-MEM reduced serum medium for 20 min at room temperature. The mixture was added drop by drop to the cells and then incubated for 4-6 h. The DNA/Lipofectamine™ 2000 medium was replaced by fresh medium and cultured for another 24 h. […] The percentage of autophagic cells was calculated by counting the number of the cells showing increased punctuate pattern of LC3 fluorescence (≧10 dots/cell) in immunofluorescence positive cells over the total number of cells in the same field. A minimum of 300 cells from randomly selected fields were scored.

A549 cells [2] = assay: Cell viability assay (MTT)
Experimental: […] At the end of the incubation, 10 μl of MTT (5 mg/mL, Sigma) were added into each well for 4 h at 37° C., then the crystals were dissolved in 100 μl of the resolved solution (10% SDS and 0.1 mM HCL). The absorbance at 570 nm was measured using a microplate reader (Tecan, Morrisville, N.C., USA). The cell viability was calculated relative to untreated controls. At least 3 independent experiments were performed and the data were plotted as curve graph.

A549 cells [3] = assay: Cell apoptosis assay, Annexin V/PI flow cytometry; settings: 24 h
Experimental: (§2) Apoptosis was measured using the Annexin V-FITC apoptosis detection kit (BD Biosciences, San Jose, Calif., USA), according to the manufacturer protocol. Briefly, A549, H358 and PANC-1 cells (1.0×10^5 cells/well) were allowed to attach in a six-well plate for 24 h, cells were treated with deltarasin for 24 h. Subsequently, cells were trypsinized, washed with PBS and stained with 100 μL binding buffer containing 2 μl Annexin-V FITC (2.5 μg/ml) and 5 μl propidium iodide (PI) (50 μg/ml) incubated in the dark at room temperature for 15 min, before further addition of 400 μl of 1×Annexin-binding buffer. The stained cells were analyzed quantitatively using a BD Aria III Flow Cytometer (BD Biosciences, San Jose, Calif., USA). Data were analyzed by Flow Jo software.

PARP, Bcl-2 and Bax = assay: Western blot of apoptosis-related proteins in A549 cells; settings: 24 h
Experimental: as §1

intracellular ROS = assay: Detection of ROS production by DCF-DA flow cytometry; settings: PANC-1, A549 and H358 cells, 24 h
Experimental: Intracellular ROS generation was measured by DCF-DA fluorescence probe using flow cytometry. Briefly, A549, H358 and PANC-1 cells (1×10^5 cells/well) were seeded in a six-well plate, and different concentrations of deltarasin were added into the wells. After treatment with deltarasin for 24 h, the treated cells were detached with trypsin, and washed twice with PBS and incubated with 10 μM DCF-DA for 30 min at 37° C. in the dark, the fluorescence-stained cells were then analyzed using a FACS BD Aria III flow cytometer.

H358 cells [4] = assay: Cell viability assay (MTT); settings: Homo sapiens, NCI-H358, 72 h
Experimental: (§3) 3000 cells were seeded at 96-well plates and cultured overnight for cell adhesion, and treated with DMSO or various concentrations of deltarasin for 72 h. At the end of the incubation, 10 μl of MTT (5 mg/mL, Sigma) were added into each well for 4 h at 37° C., then the crystals were dissolved in 100 μl of the resolved solution (10% SDS and 0.1 mM HCL). The absorbance at 570 nm was measured using a microplate reader (Tecan, Morrisville, N.C., USA). The cell viability was calculated relative to untreated controls. At least 3 independent experiments were performed and the data were plotted as curve graph.

PANC-1 cells = assay: Cell viability assay (MTT); settings: Homo sapiens, 72 h
Experimental: as §3

H358 cells [5] = assay: Cell apoptosis assay, Annexin V/PI flow cytometry; settings: 24 h, deltarasin 5 μM, 3-MA 5 mM where co-treated
Experimental: as §2

[6] = system: c-Raf, Akt and ERK phosphorylation; assay: Western blot of KRAS downstream signalling; settings: PANC-1, A549 and H358 cells, 24 h, 0-5 μM
Experimental: as §1

GTP-RAS = assay: RAS activation assay (Raf1 RBD pull-down) in A549 cells; settings: 5 μM, 24 h
Experimental: A549 cells were treated with deltarasin for 24 h at 5 μM. Cells were lysed in lysis buffer, adjusted the volume of each sample to 1 ml with 1×Assay Lysis Buffer. Then 40 μl of the Raf1 RBD Agarose bead slurry was swiftly added to each samples. The samples were incubated at 4° C. for 1 h with gentle agitation. The beads were washed 3 times with cold lysis buffer, and bounded protein was resuspended in 40 μl of 2×reducing SDS-PAGE sample buffer and heated at 100° C. for 5 min. The level of […] was detected after SDS-PAGE followed by Western blot.

KRAS = assay: Immunofluorescence of KRAS cellular localization in A549 cells; settings: 5 μM, 24 h
Experimental: Cells were plated on 6-well plates and grown overnight, then treated with 5 μM deltarasin or 5 mM 3-MA for 24 h. Cells were fixed with 4% paraformaldehyde for 20 min at 4° C., followed by permeabilized with 0.2% Triton X-100 in PBS for 10 min. Subsequently, the cells were blocked with 2% BSA/PBS for 30 min at room temperature, then incubated with KRAS antibody (1:100) overnight at 4° C., followed by the secondary antibody (1:500) for 1 h at room temperature. The nuclear was stained with 1 μg/ml Hoechst staining for 10 min in the dark. The cells were visualized using fluorescent microscopy.

A549 cells [7] = assay: Colony formation assay; settings: 10 days
Experimental: Detailed procedures of colony formation assay were described previously (Franken, N. A., et al., Nature protocols, 2006, 1(5):2315-2319). A549 cells were seeded in a six-well plate at a density of 500 cells per well. The cells were exposed to various concentrations of deltarasin. After 10-14 days, the colonies were fixed with 4% paraformaldehyde and stained with 0.5% (0.5% w/v) crystal violet solutions, the number of colonies were counted under a dissecting microscope.

[8] = system: AMPK-mTOR signaling pathway; assay: Western blot of AMPK-mTOR pathway in A549 cells; settings: 0-5 μM, 24 h
Experimental: as §1

Compound: Cn1cnc(N)c2ncnc1-2 [3-MA, 3-methyladenine]
accumulation of LC3-II induced by deltarasin (LC3-II; PANC-1, A549 and H358 cells, 5 μM deltarasin plus 5 mM 3-MA): suppressed
number of GFP-LC3 puncta under deltarasin (A549 cells [1]; 5 μM deltarasin plus 5 mM 3-MA): significantly diminished

Compound: CC(=O)N[C@@H](CS)C(=O)O [NAC, N-acetyl cysteine]
deltarasin-induced cell cytotoxicity (A549 cells [2]; 5 μM deltarasin plus 5 μM NAC, 24 h): decreases
deltarasin-induced apoptosis (A549 cells [3]; 5 μM deltarasin plus 5 μM NAC): decreases
PARP cleavage under deltarasin (PARP, Bcl-2 and Bax; 5 μM deltarasin plus 5 μM NAC): suppressed
accumulation of LC3-II under deltarasin (LC3-II; 5 μM deltarasin plus 5 μM NAC): suppressed
high level of ROS induced by deltarasin (intracellular ROS; 5 μM deltarasin plus 5 μM NAC): suppressed

Compound: c1cc(-c2cnn3cc(-c4ccc(OCCN5CCCCC5)cc4)cnc23)ccn1 [compound C]
accumulation of LC3-II under deltarasin (LC3-II; 5 μM deltarasin plus 5 μM Compound C): suppressed

IC50 (H358 cells [4]): 4.21 ± 0.72 µM
IC50 (PANC-1 cells): 3.86 ± 0.96 µM
IC50 (A549 cells [2]; Homo sapiens, 72 h, MTT): 5.29 ± 0.7 µM
Compound: c1ccc(Cn2c(-c3ccc(OC[C@H](C4CCNCC4)n4c(-c5ccccc5)nc5ccccc54)cc3)nc3ccccc32)cc1 [deltarasin]
induction of apoptosis vs untreated cells (A549 cells [3]; 5 μM): significantly induced apoptosis
cell apoptosis (A549 cells [3]; deltarasin 5 μM, 3-MA 5 mM where co-treated): 11.25%
cell apoptosis (H358 cells [5]): 15.99%
c-Raf, Akt and ERK phosphorylation [6]: inhibited
cleavage of PARP (PARP, Bcl-2 and Bax; 5 μM): induction of the cleavage of PARP
expression of anti-apoptotic protein Bcl-2 (PARP, Bcl-2 and Bax): reduction
expression of pro-apoptotic protein Bax (PARP, Bcl-2 and Bax): increase
binding of GTP to c-Raf-1 binding domain (KRAS-GTP level) (GTP-RAS): significantly inhibited
KRAS cellular localization (KRAS): reduced the amount of KRAS protein at the plasma membrane and displaced KRAS into the cytoplasm
colony formation capacity (A549 cells [7]; 0-5 μM): significantly inhibits
colonies formed (A549 cells [7]; 5 μM): no visible colonies
conversion of LC3-I to LC3-II (LC3-II; PANC-1, A549 and H358 cells, 0-5 μM, dose-dependent): distinctly facilitated
GFP-LC3 puncta formation (A549 cells [1]; 5 μM, vs untreated control): increased percentage
mTOR and p70S6K phosphorylation [8]: suppressed
p-AMPK level [8]: up-regulation
intracellular ROS levels (intracellular ROS; 5 μM): significantly elevated
